Where two headings read alike, the source gives them in different places.
Legend:
[1] = test system: Truncated N-terminal huntington 150 Q-EGFP-Neuron 2a cells; experiment: Measurement of x-Fold (polyglutamine aggregation inhibitory activity); type: cell-based
Experimental: In the present invention, the polyglutamine aggregation inhibitory activity (x-Fold) can be measured, for example, by the method described in the Example.
The number of the aggregated cells, and the total number of cells were counted by Array Scan V T1 (manufactured by Cellomics, Pittuburg, USA), and the ratio of the aggregated cells to the total number of cells was determined (x-Fold). […]

[2] = test system: transglutaminase (TGase); experiment: Measurement of TG (TGase inhibitory activity, monodansyl cadaverine / N,N-dimethylcasein fluorescence, FDSS 3000); type: biochemical
In short: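 Compound (1 μL of 10 mM stock) added to 0.1 mL reaction: 100 mM HEPES-NaOH pH 7.5, 1 mM CaCl2, 20 μM monodansyl cadaverine, 0.05 mg/mL N,N-dimethylcasein, 5 μg/mL TGase. Rate of fluorescence change at 340 nm measured; DMSO control set to 100; TG50 is the concentration halving activity.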

[3] = test system: SOC (store operated calcium channel); experiment: Measurement of SOC IC50 (thapsigargin store depletion, calcium re-addition, CHO cells); type: cell-based; conditions: read-out: SOC IC50
Experimental: The SOC (store operated calcium channel)-suppressive action can be measured by the method described in the Example and using, for example, FDSS 3000.
CHO cell culture medium was replaced with a BSS solution which is an extracellular fluidfree of calcium, the compound of the present invention was added 1 min later, and 1 μM thapsigargin was allowed to act thereon 2 min later to deplete intracellular calcium store. […]

[4] = ratio of aggregated cells to total number of cells, compound 20 μM, 20 hr, almost 1 without compound, smaller = stronger inhibition
[5] = TGase activity with compound (10 mM, 1 μL in 0.1 ml enzyme reaction solution), DMSO control taken as 100
[6] = Cricetulus griseus, CHO, CHO cells, 1 μM thapsigargin, 2 mM calcium chloride
[7] = Cricetulus griseus, CHO, Table 1
[8] = polyglutamine aggregation inhibitory activity, Table 1
[9] = TGase inhibitory activity value, Table 1

Compound | TGase activity remaining (% of DMSO control = 100) [2, 5] | TGase activity remaining (% of DMSO control = 100) ([2]; TGase inhibitory activity value, Table 1, listed as 5020) | IC50 [3, 6] | IC50 [3, 7] | TGase activity remaining (% of DMSO control = 100) [2, 9] | TGase activity remaining (% of DMSO control = 100) ([2]; TGase inhibitory activity value, Table 1, listed as 7020) | IC50 ([3]; CHO cells, 1 μM thapsigargin, 2 mM calcium chloride) | x-Fold ([1]; polyglutamine aggregation inhibitory activity, Table 1, listed as 5020) | x-Fold [1, 4] | x-Fold [1, 8] | x-Fold ([1]; polyglutamine aggregation inhibitory activity, Table 1, listed as 7020)
NC(=O)NCCCC(N)C(=O)OB(c1ccccc1)c1ccccc1 (stereo not drawn) [Example 307, diphenyl(citrullinate-O,N)borane] | 54 |  | 500 nM | 500 nM | 54 |  |  |  | 1.06 | 1.06 | 
NCCCC(N)C(=O)OB(c1ccccc1)c1ccccc1 (stereo not drawn) [Example 308, diphenyl(ornithinate-O,N)borane] | 27 |  | 500 nM | 500 nM |  | 27 |  |  | 1.05 |  | 1.05
OB(c1ccc(Oc2ccc(B(O)c3ccc(C(F)(F)F)cc3)cc2)cc1)c1ccc(C(F)(F)F)cc1 [Example 325, bis(4-(4-trifluoromethylphenylhydroxyboryl)phenyl)ether] | 92 |  | 4000 nM | 4000 nM | 92 |  |  |  | 0.99 | 0.99 | 
NCCOB(c1ccccc1)c1ccc(COCc2cccc(B(OCCN)c3ccccc3)c2)cc1 [Example 332, (3-(phenylaminoethoxyboryl)benzyl)(4-(phenylaminoethoxyboryl)benzyl)ether] | 21 |  | 200 nM | 200 nM | 21 |  |  |  | 0.98 | 0.98 | 
NCCOB(c1ccccc1)c1cccc(COCc2ccccc2B(OCCN)c2ccccc2)c1 [Example 334] | 21 |  | 300 nM | 300 nM | 21 |  |  |  | 1.02 | 1.02 | 

Second part, led by results:

TGase activity remaining (% of DMSO control = 100) [2, 5] | TGase activity remaining (% of DMSO control = 100) ([2]; TGase inhibitory activity value, Table 1, listed as 5020) | IC50 [3, 6] | IC50 [3, 7] | TGase activity remaining (% of DMSO control = 100) [2, 9] | TGase activity remaining (% of DMSO control = 100) ([2]; TGase inhibitory activity value, Table 1, listed as 7020) | IC50 ([3]; CHO cells, 1 μM thapsigargin, 2 mM calcium chloride) | Compound | x-Fold ([1]; polyglutamine aggregation inhibitory activity, Table 1, listed as 5020) | x-Fold [1, 4] | x-Fold [1, 8] | x-Fold ([1]; polyglutamine aggregation inhibitory activity, Table 1, listed as 7020)
146 | 146 | 1000 nM | 1000 nM |  |  |  | CCCCC(N)C(=O)OB(c1ccc(C)c(Cl)c1)c1ccc(C)c(Cl)c1 (stereo not drawn) [Example 292, di(3-chloro-4-methylphenyl)(norloysinate-O,N)borane] | 1.00 | 1.00 |  | 
114 |  | 2000 nM | 2000 nM | 114 |  |  | CN(C)CCSB(c1ccccc1)c1ccccc1 [Example 294, diphenyl dimethylaminoethylthioborane] |  | 0.96 | 0.96 | 
107 |  | 800 nM | 800 nM | 107 |  |  | Cc1ccc(B(SCCN(C)C)c2ccc(C)c(Cl)c2)cc1Cl [Example 295, di(3-chloro-4-methylphenyl)dimethylaminoethylthioborane] |  | 0.92 | 0.92 | 
98 |  |  |  |  |  | 200 nM | Cc1ccc(B(O)c2ccc(COCc3ccc(B(O)c4ccc(C)c(Cl)c4)cc3)cc2)cc1Cl [Example 322, bis(4,4′-(3-chloro-4-methylphenylhydroxyboryl)benzyl)ether] |  | 0.32 |  | 
101 |  | 1000 nM | 1000 nM | 101 |  |  | OB(c1ccccc1)c1ccc(COCc2ccccc2B(O)c2ccccc2)cc1 [Example 331, (2-(phenylhydroxyboryl)benzyl)(4-(phenylhydroxyboryl)benzyl)ether] |  | 0.98 | 0.98 | 
100 |  | > 20000 nM | > 20000 nM | 100 |  |  | Cc1ccc(B(O)c2ccc(COCc3ccc(B(O)c4ccc(C)cc4)cc3)cc2)cc1 [Example 361, bis(4-(4-methylphenylhydroxyboryl)benzyl)ether] |  | 0.88 | 0.88 | 

Source: patent US8853424B2 (Japan Science and Technology Agency, priority 2008, dated 2014)
